Experiments:
M-channels = assay: Voltage dependence of M-channels
[1] = tested on: mice subjected to CCCI, subthreshold pilocarpine; assay: Pilocarpine-induced seizure susceptibility after CCCI; format: in vivo, mouse; conditions: three subthreshold pilocarpine doses on fifth day after CCCI; RTG 1.2 mg/kg i.p. 30 min post-TBI
Description: Pilocarpine is a cholinomimetic drug widely used as a chemo-convulsant in animal models to induce status epilepticus. To minimize pilocarpine-induced peripheral cholinergic effects and mortality, animals were pretreated with scopolamine methyl nitrate (i.p. 1 mg/kg; MP Biomedicals) 30 minutes prior to pilocarpine injection. Both drugs were diluted in sterile 0.9% (w/v) saline. Immediately after pilocarpine injection, cortical activity was monitored for 24 hours by video/EEG recording.

mice subjected to rbTBI = assay: Sleep-wake cycle analysis of EEG after rbTBI; format: in vivo, mouse; conditions: first week post-rbTBI
Description: To study the sleep-wake cycle, video/EEG records from the first 72 hour long record session (starting 2 days after the last injury) and the last 48 hour long record session (9 months after the last injury) were analyzed. To select one EEG channel from each animal/session for further analysis, we performed visual inspections of the raw local field potentials and their time-frequency decompositions (spectrograms) recorded from the three electrodes. EEG channels with signal saturation and background noise or artifacts were discarded. Then, the EEG channel with the highest percentage power at the 5-12 Hz frequency band was used to classify the sleep-wake cycle. Awake state (WK), slow wave sleep (SWS), rapid eye movement sleep REM), and transition/undetermined states (US) were classified based on two power spectral ratios, as described by Gervasoni et al., Global Forebrain Dynamics Predict Rat Behavioral States and Their Transitions, J Neurosci 24(49): 11137-11147 (2004). In brief, it first measures the relative power within fast (0.5-20/0.5-50 Hz) and slow (0.5-4.5/0.5-9 Hz) frequency bands and then generates a 2 dimensional (2D) state-space on which clusters are manually selected and associated with each state of the sleep-wake cycle.

[2] = tested on: C57BL/6J mice subjected to three blast TBIs; assay: Repetitive blast TBI (rbTBI): post-traumatic seizures and post-traumatic epilepsy, video/EEG
Description: Adult 12-week-old male C57BL/6J mice (Jackson Labs, Bar Harbor, Me.) were group-housed with food and water ad libitum in 12:12 hour light: dark cycle. […] Experimenters were blinded to group allocation during data collection and analysis.
The shock tube (Applied Research Associates) had and inner diameter of 17 inches and a about 36-inch end opening. […] Before reaching the mice, the air blast wave passed through a 0.016-inch-thick aluminum membrane of alloy AL-2200. Pencil probe gauges (PCB Piezotronics) were placed beside the mice to monitor the pressure of the air-driven blast wave. […] During the procedure, mice were anesthetized using ketamine (25-75 mg/kg) and dexmedetomidine (0.25 mg/kg). The animals were subjected to three directed head-on blast TBI with 24 hours intervals between each injury. On the first day of blast exposure, animals were given a subcutaneous injection of buprenorphine SR (1.2 mg/kg) in the interscapular region.
Sham animals were anesthetized and placed in the shock tube but were not subjected to the rbTBI. After each blast exposure, mice were given one subcutaneous injection of atipamezole (1 mg/kg) to reverse the anesthesia and placed into a recovery chamber with controlled temperature. On the following days, mice were monitored for signs of pain and distress.
Mice from the “TBI” group were injected with the same volume of vehicle solution only.
Seizures were identified visually by the investigator's analysis of the video/EEG records. The number of seizures, latency to the first seizure, seizure duration, and percentage of mice from each group that had seizures were quantified.

[3] = tested on: TAR DNA-binding protein 43 (TDP-43); assay: TDP-43 immunoblotting and immunohistochemistry after rbTBI (CTE marker); format: in vivo, mouse
Description: Levels of TDP-43 were first analyzed by immunoblotting experiments performed as previously described. Cortical and hippocampal samples were collected when the mice were 26-28 months of age.
Complementary to the immunoblot experiments, immunohistochemistry staining of TDP-43 was performed as previously described. Left hemisphere samples were removed and fixed overnight in 4% paraformaldehyde (Electron Microscopy Sciences). Subsequently, samples were transferred into 30% (w/v) sucrose in PBS and kept for 3 days at 4° C. before they were frozen in Tissue-Plus O.C.T. Compound (Fisher Scientific) using 2-methylbutane immersed in dry ice. Samples were stored at −80° C. until cross-sectioning.
20 μm thick coronal sections of the prefrontal cortex (PFC) were mounted on Superfrost Plus microscope slides (Fisher Scientific) previously coated with gelatin (Sigma). […] Images were taken in the PFC layer II at 40× magnification using an iXon ultra EMCCD Andor camera attached to a Nikon Eclipse TE2000-U microscope, with a fixed exposition time of 200 ms, in the 16-bit readout mode, with 2 MHz speed, and a pre-amplifier gain of 3. The mean and maximum fluorescence signal was obtained by automatic quantification with ImageJ (National Institutes of Health, USA). […]
Samples used in the immunoblotting and the immunohistochemistry experiments were from the EEG-monitored mice and from the above independent cohort. […]

[4] = tested on: mice subjected to one blunt TBI (CCCI); assay: Dosage optimization: spontaneous myoclonic seizures after one blunt TBI (CCCI); format: in vivo, mouse; conditions: RTG 0.3, 1 and 3 mg/kg i.p. once 30 minutes post-TBI; second to fourth day
Description: An additional KCNQ2/3-specific compound, RL648_81 was also administered in the same manner (0.03 mg/kg, 0.1 mg/kg, and 0.3 mg/kg). […] To monitor the occurrence of spontaneous myoclonic seizures after, the mice were video/EEG monitored from the second to the fourth day after the TBI (72 hours total).

CCOC(=O)Nc1ccc(NCc2ccc(F)cc2)cc1N [RTG, 2-amino-4-(4-fluorobenzylamino)-1-ethoxycarbonylaminobenzene]
voltage dependence of M-channels (M-channels): shifting the voltage dependence of M-channels towards more negative potentials
pilocarpine-induced abnormal spike activity [1]: significant reduction of pilocarpine-induced abnormal spike activity
percentage of time in awake state (mice subjected to rbTBI): roughly equivalent to that experienced by the Sham group
duration of post-traumatic seizures (PTS) ([2]; rbTBI, RTG 1.2 mg/kg i.p. 30 minutes after each blast, second to fourth day after TBIs): significantly reduced duration of the PTS
mice experiencing seizures (PTE) ([2]; rbTBI, RTG 30 minutes after each TBI, first to ninth month after final rbTBI): about 20%
severity of post-traumatic seizures (EEG amplitude) ([2]; rbTBI, RTG 30 minutes after each blast): less severe
mice that developed post-traumatic epilepsy (PTE) ([2]; three blast TBIs one day apart, RTG 30 min after each, 1 month to 12 months after injury): 25%
TDP-43 expression in the cerebral cortex ([3]; 2 years after TBIs, immunoblot and immunofluorescence): reduced TDP-43 as compared to the Blast cohort
phosphorylation levels of TDP-43 ([3]; cerebral cortex): Neither TBI, nor RTG treatment, changed the phosphorylation levels of TDP-43
occurrence of myoclonic seizures post-TBI [4]: significantly reduced the occurrence of myoclonic seizures

From patent publication US20220354818A1, “METHODS FOR TREATING BRAIN INJURY OR COGNITIVE DYSFUNCTION BY PHARMACOLOGICAL ENHANCMENT OF M-TYPE POTASSIUM ION CURRENTS IN NEURONS” (Advanced Neuroresearch Therapeutics LLC, priority 2019, published 2022)
